In publication PMC5823406, “Vehicle development, pharmacokinetics and toxicity of the anti-invasive agent 4-fluoro-3’,4’,5’-trimethoxychalcone in rodents” (PLoS ONE, 2018):
Where “and” joins values, the source holds several entries; their conditions need not be identical. Equal entries are not always repeated. Where two headings read alike, the source gives them in different places. Marks after values point to notes of the source that are not given here.

Experiments:
[1] = Plasma PK study (IV and PO) in male Sprague-Dawley rats; assay type: in vivo, rat
Source text: Six male Sprague-Dawley rats (200–350 g) were obtained from Hilltop Labs. Animals were assigned randomly to two groups (IV or PO) of 3 upon arrival. Duration of acclimation was approximately two days. Animals were healthy at the start of the trial.
Animals subjected to IV dosing were fitted with a jugular vein cannula (JVC) under isoflurane anesthesia (induction 4%, maintenance 2.0%, oxygen 1 L/min) and under an external heating source. Post-operative analgesia was provided in the form of 2.5–5 mg/kg of ketoprofen subcutaneously. Benzylpenicillin (60 mg) was given intramuscularly to prevent infection. Sterile 0.9% NaCl was injected subcutaneously under the back skin using a 21G needle during recovery to replace fluid loss. Animals were placed under a heat lamp and monitored until they regained full consciousness. […] Surgically modified animals were housed individually, monitored hourly for the first 4 h and then daily over a 2-day recovery period.
Animals were maintained in a well-controlled temperature (20–24°C) and humidity (30%-70%) environment with 12 h light/dark cycles. Conventional cages with wood chip bedding were used. Animals were identified by a cage label. The study was not blinded. Food was withheld from all animals for a minimum of twelve hours prior to test article administration and returned at approximately 4 h post-dose. Water was supplied ad libitum.
C16 was dosed in cassette with two undisclosed compounds of similar chemical structure. Dosing solutions were prepared in 100% DMSO on the day of dosing. The concentration of C16 was 1 and 5 mg/mL for IV and PO dosing, respectively. C16 was administered at 1 mg/kg IV via JVC or at 10 mg/kg PO.
Sampling took place pre-dose, 5, 15, 30 min, 1, 2, 4, and 8 h post-dose. Blood samples (0.3 mL) were collected via the JVC, placed into chilled tubes containing sodium heparin and kept on ice until centrifugation. Plasma preparation involved centrifugation at a temperature of 2 to 8°C at 3,000 g for 5 min. Plasma samples were stored frozen at -70°C until analysis. No necropsy was performed.
Pharmacokinetic parameters were estimated by a non-compartmental model using WinNonlin (v5.2.1 or higher) software. The maximum plasma/blood concentrations (c0) after IV dosing were estimated by extrapolation of the first two time points back to t = 0. The maximum blood concentration (cmax) and the time to reach maximum blood drug concentration (tmax) after PO dosing were derived from the data. The area under the time-concentration curve (AUC) was calculated using the linear trapezoidal rule with calculation to the last quantifiable data point, and with extrapolation to infinity if applicable. Plasma/blood half-life (t1/2) was calculated from 0.693/slope of the terminal elimination phase. Mean residence time (MRT) was calculated by dividing the area under the moment curve (AUMC) by the AUC. Clearance (CL) was calculated from dose/AUC. Steady-state volume of distribution (Vss) was calculated from CL*MRT. Bioavailability was determined by dividing the individual dose-normalized PO AUC values by the respective average dose-normalized intravenous (IV) AUC value. Samples that were below the limit of quantification were not used in the calculation of averages, and were treated as zero for pharmacokinetic data analysis. […]
(mAU.s) (mAU.s) peak area) (mAU.s) (mAU.s) peak area) (mAU.s) (mAU.s) peak area) […]
a. Dosing solution preparation
The dosing solution was prepared as a cassette to contain all three test articles in the same solution. IV dosing was fixed at 2 mg/mL of C16 and the two other test articles in neat DMSO as the vehicle, with a dosing volume 0.5 mL/kg (slow injection). PO dosing was set at 10 mg/mL of C16 and the two other test articles in neat DMSO as the vehicle, with a dosing volume of 1 mL/kg.
Individual plasma concentrations for C16 are shown in Table F and Table G. All data are expressed as ng/mL of the […]
free drug. […]

MCF-7/6 = tested on: MCF-7/6; set-up: method as in PMID 26204510; settings: cited from earlier work
[2] = male, Sprague-Dawley, rat, plasma, iv, 1 mg/kg, male Sprague-Dawley rat, IV 1 mg/kg, vehicle DMSO, average
[3] = male, Sprague-Dawley, rat, plasma, iv, 1 mg/kg, rat plasma, IV 1 mg/kg, individual animals 1-3
[4] = male, Sprague-Dawley, rat, plasma, po, 10 mg/kg, male Sprague-Dawley rat, PO 10 mg/kg, vehicle DMSO, average
[5] = male, Sprague-Dawley, rat, plasma, po, 10 mg/kg, male Sprague-Dawley rat, PO 10 mg/kg, vehicle DMSO, calculated for two out of three animals
[6] = plasma, male Sprague-Dawley rat, IV 1 mg/kg, vehicle DMSO, average
[7] = rat plasma, IV 1 mg/kg, individual animals 1-3, 1 mg/kg
[8] = rat plasma, PO 10 mg/kg, individual animals 4-6, 10 mg/kg
[9] = rat plasma, PO 10 mg/kg, individual animals 5-6, 10 mg/kg

SMILES: COc1cc(C(=O)/C=C/c2ccc(F)cc2)cc(OC)c1OC [C16, 4-fluoro-3’,4’,5’-trimethoxychalcone]
- AUC(0-inf) [1, 2]: 215 ng·h/mL
- AUC(0-t) [1, 2]: 211 ng·h/mL
- MRT last [1, 2]: 0.76 h
- clearance [1, 2]: 82.5 mL/min/kg
- half-life [1, 2]: 1.93 h
- C0 ([1]; male, Sprague-Dawley, rat, plasma, iv, 1 mg/kg, male Sprague-Dawley rat, IV 1 mg/kg, vehicle DMSO, average, extrapolated to t = 0): 1260 ng/mL
- Vd ([1]; male, Sprague-Dawley, rat, plasma, iv, 1 mg/kg, plasma, male Sprague-Dawley rat, IV 1 mg/kg, vehicle DMSO, average, read-out: Vss): 4.77 L/kg
- Tmax ([1]; male, Sprague-Dawley, rat, plasma, iv, 1 mg/kg, plasma, male Sprague-Dawley rat, IV 1 mg/kg, vehicle DMSO, average, read-out: tmax): 0 h
- AUC(0-inf) [1, 3]: 227 ng·h/mL
- AUC(0-t) [1, 3]: 224 ng·h/mL
- MRT last [1, 3]: 0.7 h
- clearance [1, 3]: 73.3 mL/min/kg
- half-life [1, 3]: 1.8 h
- Tmax ([1]; male, Sprague-Dawley, rat, plasma, iv, 1 mg/kg, rat plasma, IV 1 mg/kg, individual animals 1-3, read-out: tmax): 0 h
- concentration at 0.5 h ([1]; male, Sprague-Dawley, rat, plasma, iv, 1 mg/kg, rat, IV 1 mg/kg, 0.50 h, animals 1-3, read-out: Individual plasma concentration): 32.4 ng/mL
- concentration at 1 h ([1]; male, Sprague-Dawley, rat, plasma, iv, 1 mg/kg, rat, IV 1 mg/kg, 1.0 h, animals 1-3, read-out: Individual plasma concentration): 23.1 ng/mL
- concentration at 2 h ([1]; male, Sprague-Dawley, rat, plasma, iv, 1 mg/kg, rat, IV 1 mg/kg, 2.0 h, animals 1-3, read-out: Individual plasma concentration): 14.3 ng/mL
- concentration at 4 h ([1]; male, Sprague-Dawley, rat, plasma, iv, 1 mg/kg, rat, IV 1 mg/kg, 4.0 h, animals 1-3, read-out: Individual plasma concentration): 4.94 ng/mL
- concentration at 8 h ([1]; male, Sprague-Dawley, rat, plasma, iv, 1 mg/kg, rat, IV 1 mg/kg, 8.0 h, animals 1-3, read-out: Individual plasma concentration): 1.34 ng/mL
- AUC(0-t) [1, 4]: 146 ng·h/mL
- MRT last [1, 4]: 3.67 h
- AUC(0-inf) [1, 5]: 161 ng·h/mL
- half-life [1, 5]: 3.67 h
- Bioavailability ([1]; male, Sprague-Dawley, rat, plasma, po, 10 mg/kg, plasma, male Sprague-Dawley rat, PO 10 mg/kg, vehicle DMSO, average, read-out: Bioavailability): 6.91%
- cmax ([1]; male, Sprague-Dawley, rat, plasma, po, 10 mg/kg, plasma, male Sprague-Dawley rat, PO 10 mg/kg, vehicle DMSO, average, read-out: cmax): 32.2 ng/mL
- Tmax ([1]; male, Sprague-Dawley, rat, plasma, po, 10 mg/kg, plasma, male Sprague-Dawley rat, PO 10 mg/kg, vehicle DMSO, average, read-out: tmax): 2.83 h
- MRT last ([1]; male, Sprague-Dawley, rat, plasma, po, 10 mg/kg, rat plasma, PO 10 mg/kg, individual animals 4-6): 4.92 h
- concentration at 0.5 h ([1]; male, Sprague-Dawley, rat, plasma, po, 10 mg/kg, rat, PO 10 mg/kg, 0.50 h, animals 4-6, read-out: Individual plasma concentration): 22.5 ng/mL
- concentration at 2 h ([1]; male, Sprague-Dawley, rat, plasma, po, 10 mg/kg, rat, PO 10 mg/kg, 2.0 h, animals 4-6, read-out: Individual plasma concentration): 15.1 ng/mL
- Dose-normalized AUClast [1, 6]: 211 kg·ng·h/mL/mg
- Dose-normalized AUC∞ [1, 6]: 215 kg·ng·h/mL/mg
- Dose-normalized AUClast ([1]; plasma, male Sprague-Dawley rat, PO 10 mg/kg, vehicle DMSO, average): 14.6 kg·ng·h/mL/mg
- Dose-normalized AUC∞ ([1]; plasma, male Sprague-Dawley rat, PO 10 mg/kg, vehicle DMSO, calculated for two out of three animals): 16.1 ^f h∙kg ng/mL/mg
- AUClast [1, 7]: 145 ng·h/mL and 264 ng·h/mL
- AUC∞ [1, 7]: 149 ng·h/mL and 269 ng·h/mL
- CL [1, 7]: 112 mL/min/kg and 62 mL/min/kg
- MRTlast [1, 7]: 0.87 h and 0.71 h
- Vss [1, 7]: 3.73 L/kg and 7.30 L/kg and 3.27 L/kg
- c0 [1, 7]: 1718 ng/mL and 659 ng/mL and 1395 ng/mL
- t1/2 [1, 7]: 2.00 h
- AUClast [1, 8]: 236 ng·h/mL and 88.0 ng·h/mL and 114 ng·h/mL
- Bioavailability [1, 8]: 11.2% and 4.17% and 5.39%
- Dose Normalized AUClast [1, 8]: 23.6 kg·ng·h/mL/mg and 8.80 kg·ng·h/mL/mg and 11.4 kg·ng·h/mL/mg
- MRTlast [1, 8]: 3.60 h and 2.48 h
- Tmax [1, 8]: 8.00 h
- cmax [1, 8]: 47.1 ng/mL and 15.9 ng/mL and 33.5 ng/mL
- AUC∞ [1, 9]: 219 ng·h/mL
- Dose Normalized AUC∞ [1, 9]: 10.2 kg·ng·h/mL/mg and 21.9 kg·ng·h/mL/mg
- t1/2 [1, 9]: 11.0 h
- Adverse effects after intravenous and oral administration ([1]; rat, 1 mg/kg IV and 10 mg/kg PO, cassette in 100% DMSO): No adverse effects were observed
- Individual plasma concentration ([1]; rat, IV 1 mg/kg, 0.083 h, animals 1-3, 1 mg/kg): 568 ng/mL and 345 ng/mL and 693 ng/mL
- Individual plasma concentration ([1]; rat, IV 1 mg/kg, 0.25 h, animals 1-3, 1 mg/kg): 62.1 ng/mL and 94.6 ng/mL and 171 ng/mL
- Individual plasma concentration ([1]; rat, IV 1 mg/kg, 0.50 h, animals 1-3, 1 mg/kg): 31.9 ng/mL and 63.2 ng/mL
- Individual plasma concentration ([1]; rat, IV 1 mg/kg, 1.0 h, animals 1-3, 1 mg/kg): 19.1 ng/mL and 25.4 ng/mL
- Individual plasma concentration ([1]; rat, IV 1 mg/kg, 2.0 h, animals 1-3, 1 mg/kg): 8.99 ng/mL and 12.6 ng/mL
- Individual plasma concentration ([1]; rat, IV 1 mg/kg, 4.0 h, animals 1-3, 1 mg/kg): 4.34 ng/mL and 6.41 ng/mL
- Individual plasma concentration ([1]; rat, IV 1 mg/kg, 8.0 h, animals 1-3, 1 mg/kg): 1.12 ng/mL and 1.58 ng/mL
- Individual plasma concentration ([1]; rat, PO 10 mg/kg, 0.25 h, animals 4-6, 10 mg/kg): 21.8 ng/mL and 15.9 ng/mL and 33.5 ng/mL
- Individual plasma concentration ([1]; rat, PO 10 mg/kg, 0.50 h, animals 4-6, 10 mg/kg): 14.8 ng/mL and 24.0 ng/mL
- Individual plasma concentration ([1]; rat, PO 10 mg/kg, 1.0 h, animals 4-6, 10 mg/kg): 28.3 ng/mL and 13.6 ng/mL and 22.0 ng/mL
- Individual plasma concentration ([1]; rat, PO 10 mg/kg, 2.0 h, animals 4-6, 10 mg/kg): 11.4 ng/mL and 18.2 ng/mL
- Individual plasma concentration ([1]; rat, PO 10 mg/kg, 4.0 h, animals 4-6, 10 mg/kg): 27.9 ng/mL and 11.7 ng/mL and 13.6 ng/mL
- Individual plasma concentration ([1]; rat, PO 10 mg/kg, 8.0 h, animals 4-6, 10 mg/kg): 47.1 ng/mL and 8.04 ng/mL and 5.96 ng/mL
- Activity level in 3D confrontation culture (chick heart invasion assay, MCF-7/6) (MCF-7/6): 10 nM
